# Experimental data: PMC12090182, “Repurposing of the RIPK1-Selective Benzo[1,4]oxazepin-4-one Scaffold for the Development of a Type III LIMK1/2 Inhibitor” (ACS Chemical Biology, 2025)
# What was measured:
# Format in all cases: cell-based
# [1] = biological target: STK11 (Homo sapiens, UniProt Q15831); settings: HEK-293T; 1 μM inhibitor, HEK293T cells
# Procedure: (§1) For plate preparation, a transfection mix was prepared in white 384-well small-volume plates (Greiner, cat. no. 784075) by preplating 3 μL of 20 μL/mL FuGene HD (Promega, cat. no. E2311), diluted in an Opti-MEM medium (Gibco, cat. no. 11058-021). One μL of DNA from both DNA vector source plates of the K192 kit was added using an Echo 550 acoustic dispenser (Beckman Coulter). The mix was incubated for 30 min, and 6 μL of HEK293T cells in an Opti-MEM medium was added. The proteins were allowed to express for 20 h. After expression, Tracer K10 was added using the concentrations recommended in the K192 technical manual and a 1 μM inhibitor was added to every second well. […] Five μL of substrate solution was added to every well, and filtered luminescence was measured on a PHERAstar plate reader (BMG Labtech) equipped with a luminescence filter pair (450 nm BP filter (donor) and a 610 nm LP filter (acceptor)). For every kinase, occupancy was calculated and plotted using GraphPad Prism 10 (Table S5).
# [2] = biological target: EPHB4 (Homo sapiens, UniProt P54760); settings: HEK-293T; 1 μM inhibitor, HEK293T cells
# Procedure: as §1
# [3] = biological target: IRAK4 (Homo sapiens, UniProt Q9NWZ3); settings: HEK-293T; 1 μM inhibitor, HEK293T cells
# Procedure: as §1
# [4] = biological target: PAK4 (Homo sapiens, UniProt O96013); settings: HEK-293T; 1 μM inhibitor, HEK293T cells
# Procedure: as §1
# [5] = biological target: LTK (Homo sapiens, UniProt P29376); settings: 1 μM inhibitor, HEK293T cells
# Procedure: as §1
# [6] = biological target: FGFR2 (Homo sapiens, UniProt P21802); settings: HEK-293T; 1 μM inhibitor, HEK293T cells
# Procedure: as §1
# [7] = biological target: RIOK2 (Homo sapiens, UniProt Q9BVS4); settings: HEK-293T; 1 μM inhibitor, HEK293T cells
# Procedure: as §1
# [8] = biological target: STK17B (Homo sapiens, UniProt O94768); settings: HEK-293T; 1 μM inhibitor, HEK293T cells
# Procedure: as §1
# [9] = biological target: CDK14 (Homo sapiens, UniProt O94921); settings: HEK-293T; 1 μM inhibitor, HEK293T cells
# Procedure: as §1
# [10] = biological target: STK38L (Homo sapiens, UniProt Q9Y2H1); settings: HEK-293T; 1 μM inhibitor, HEK293T cells
# Procedure: as §1
# [11] = biological target: CDK18 (Homo sapiens, UniProt Q07002); settings: HEK-293T; 1 μM inhibitor, HEK293T cells
# Procedure: as §1
# [12] = biological target: LCK (Homo sapiens, UniProt P06239); settings: HEK-293T; 1 μM inhibitor, HEK293T cells
# Procedure: as §1
# [13] = biological target: MAP3K12 (Homo sapiens, UniProt Q12852); settings: HEK-293T; 1 μM inhibitor, HEK293T cells
# Procedure: as §1
# [14] = biological target: PRKAA1 (Homo sapiens, UniProt Q13131); settings: HEK-293T; 1 μM inhibitor, HEK293T cells
# Procedure: as §1
# [15] = biological target: SIK1 (Homo sapiens, UniProt P57059); settings: HEK-293T; 1 μM inhibitor, HEK293T cells
# Procedure: as §1
# [16] = biological target: MYLK2 (Homo sapiens, UniProt Q9H1R3); settings: HEK-293T; 1 μM inhibitor, HEK293T cells
# Procedure: as §1
# [17] = biological target: CDK2 (Homo sapiens, UniProt P24941); settings: HEK-293T; 1 μM inhibitor, HEK293T cells
# Procedure: as §1
# [18] = biological target: MELK (Homo sapiens, UniProt Q14680); settings: HEK-293T; 1 μM inhibitor, HEK293T cells
# Procedure: as §1
# [19] = biological target: PHKG2 (Homo sapiens, UniProt P15735); settings: HEK-293T; 1 μM inhibitor, HEK293T cells
# Procedure: as §1
# [20] = biological target: ULK3 (Homo sapiens, UniProt Q6PHR2); settings: HEK-293T; 1 μM inhibitor, HEK293T cells
# Procedure: as §1
# [21] = biological target: CDK7 (Homo sapiens, UniProt P50613); settings: HEK-293T; 1 μM inhibitor, HEK293T cells
# Procedure: as §1
# [22] = biological target: BRSK1 (Homo sapiens, UniProt Q8TDC3); settings: HEK-293T; 1 μM inhibitor, HEK293T cells
# Procedure: as §1
# [23] = biological target: CAMK1 (Homo sapiens, UniProt Q14012); settings: HEK-293T; 1 μM inhibitor, HEK293T cells
# Procedure: as §1
# [24] = biological target: FER (Homo sapiens, UniProt P16591); settings: HEK-293T; 1 μM inhibitor, HEK293T cells
# Procedure: as §1
# [25] = biological target: AURKB (Homo sapiens, UniProt Q96GD4); settings: HEK-293T; 1 μM inhibitor, HEK293T cells
# Procedure: as §1
# [26] = biological target: TYRO3 (Homo sapiens, UniProt Q06418); settings: HEK-293T; 1 μM inhibitor, HEK293T cells
# Procedure: as §1
# [27] = biological target: STK3 (Homo sapiens, UniProt Q13188); settings: HEK-293T; 1 μM inhibitor, HEK293T cells
# Procedure: as §1
# [28] = biological target: RON (Homo sapiens, UniProt Q04912); settings: HEK-293T; 1 μM inhibitor, HEK293T cells
# Procedure: as §1
# [29] = biological target: MLTK (Homo sapiens, UniProt Q9NYL2); settings: HEK-293T; 1 μM inhibitor, HEK293T cells
# Procedure: as §1
# [30] = biological target: PLK4 (Homo sapiens, UniProt O00444); settings: HEK-293T; 1 μM inhibitor, HEK293T cells
# Procedure: as §1
# [31] = biological target: CDK20 (Homo sapiens, UniProt Q8IZL9); settings: HEK-293T; 1 μM inhibitor, HEK293T cells
# Procedure: as §1
# [32] = biological target: HIPK4 (Homo sapiens, UniProt Q8NE63); settings: HEK-293T; 1 μM inhibitor, HEK293T cells
# Procedure: as §1
# [33] = biological target: SBK3 (Homo sapiens, UniProt P0C264); settings: HEK-293T; 1 μM inhibitor, HEK293T cells
# Procedure: as §1
# [34] = biological target: PLK2 (Homo sapiens, UniProt Q9NYY3); settings: HEK-293T; 1 μM inhibitor, HEK293T cells
# Procedure: as §1
# [35] = biological target: T1, BTK (Homo sapiens, UniProt Q06187); settings: HEK-293T; 1 μM inhibitor, HEK293T cells
# T1 construct: full-length LIMK1/2, RIPK1, BTK, and LRRK2 cloned in a frame in a NanoLuc-vector (Promega); host or cells: HEK293T
# Procedure: as §1
# [36] = biological target: AXL (Homo sapiens, UniProt P30530); settings: HEK-293T; 1 μM inhibitor, HEK293T cells
# Procedure: as §1
# CDK20, sequence (Q8IZL9 whole entry): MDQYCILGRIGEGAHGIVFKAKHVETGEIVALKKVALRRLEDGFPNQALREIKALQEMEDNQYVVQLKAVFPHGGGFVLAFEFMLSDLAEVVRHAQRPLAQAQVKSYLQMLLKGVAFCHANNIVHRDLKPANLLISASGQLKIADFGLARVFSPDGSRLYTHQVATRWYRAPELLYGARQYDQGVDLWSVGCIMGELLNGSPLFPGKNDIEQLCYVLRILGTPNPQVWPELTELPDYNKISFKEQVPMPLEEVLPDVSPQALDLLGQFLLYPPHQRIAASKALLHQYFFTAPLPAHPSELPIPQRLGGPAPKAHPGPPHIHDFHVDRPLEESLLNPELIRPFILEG
# CDK20, sequence (P51946 whole entry, further chain): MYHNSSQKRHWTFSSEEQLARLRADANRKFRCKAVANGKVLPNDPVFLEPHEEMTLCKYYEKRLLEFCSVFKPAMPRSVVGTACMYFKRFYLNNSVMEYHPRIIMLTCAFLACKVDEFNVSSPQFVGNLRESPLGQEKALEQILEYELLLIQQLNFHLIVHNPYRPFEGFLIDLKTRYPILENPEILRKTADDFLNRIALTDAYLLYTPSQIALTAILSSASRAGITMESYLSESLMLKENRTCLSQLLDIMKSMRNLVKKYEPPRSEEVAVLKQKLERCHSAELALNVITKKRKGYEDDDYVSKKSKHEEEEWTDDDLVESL
# MYLK2, sequence (Q9H1R3 whole entry): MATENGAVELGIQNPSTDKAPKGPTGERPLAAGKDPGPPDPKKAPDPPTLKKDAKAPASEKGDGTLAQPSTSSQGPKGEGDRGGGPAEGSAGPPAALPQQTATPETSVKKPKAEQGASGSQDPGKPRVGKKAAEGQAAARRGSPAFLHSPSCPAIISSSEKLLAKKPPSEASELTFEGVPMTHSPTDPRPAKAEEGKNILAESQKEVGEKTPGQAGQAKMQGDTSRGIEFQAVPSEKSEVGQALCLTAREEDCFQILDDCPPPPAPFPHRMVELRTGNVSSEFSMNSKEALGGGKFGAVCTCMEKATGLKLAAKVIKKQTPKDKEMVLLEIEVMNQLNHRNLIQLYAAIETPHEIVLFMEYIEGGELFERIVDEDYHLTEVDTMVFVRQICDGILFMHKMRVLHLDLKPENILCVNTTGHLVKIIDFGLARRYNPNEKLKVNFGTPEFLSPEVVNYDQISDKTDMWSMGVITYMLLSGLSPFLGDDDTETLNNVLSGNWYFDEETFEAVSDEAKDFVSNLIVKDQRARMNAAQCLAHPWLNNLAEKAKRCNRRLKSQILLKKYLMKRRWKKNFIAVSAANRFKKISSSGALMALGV
# HIPK4, sequence (Q8NE63 whole entry): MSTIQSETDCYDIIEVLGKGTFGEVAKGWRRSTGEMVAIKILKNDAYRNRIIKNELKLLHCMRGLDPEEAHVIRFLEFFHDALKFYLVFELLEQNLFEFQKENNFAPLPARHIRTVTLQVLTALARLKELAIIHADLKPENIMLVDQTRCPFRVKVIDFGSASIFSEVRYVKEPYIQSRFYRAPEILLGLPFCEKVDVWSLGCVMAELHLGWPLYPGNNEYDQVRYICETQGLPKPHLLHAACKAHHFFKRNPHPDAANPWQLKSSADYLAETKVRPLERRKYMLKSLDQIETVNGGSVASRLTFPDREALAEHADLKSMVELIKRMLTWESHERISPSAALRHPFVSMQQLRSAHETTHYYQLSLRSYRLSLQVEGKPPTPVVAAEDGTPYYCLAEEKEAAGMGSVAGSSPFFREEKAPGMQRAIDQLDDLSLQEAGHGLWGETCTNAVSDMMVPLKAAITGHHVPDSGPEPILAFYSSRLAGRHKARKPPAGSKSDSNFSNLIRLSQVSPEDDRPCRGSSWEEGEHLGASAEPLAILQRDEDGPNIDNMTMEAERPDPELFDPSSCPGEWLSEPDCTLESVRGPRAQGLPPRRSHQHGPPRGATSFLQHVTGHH
# MAP3K12, sequence (Q12852 whole entry): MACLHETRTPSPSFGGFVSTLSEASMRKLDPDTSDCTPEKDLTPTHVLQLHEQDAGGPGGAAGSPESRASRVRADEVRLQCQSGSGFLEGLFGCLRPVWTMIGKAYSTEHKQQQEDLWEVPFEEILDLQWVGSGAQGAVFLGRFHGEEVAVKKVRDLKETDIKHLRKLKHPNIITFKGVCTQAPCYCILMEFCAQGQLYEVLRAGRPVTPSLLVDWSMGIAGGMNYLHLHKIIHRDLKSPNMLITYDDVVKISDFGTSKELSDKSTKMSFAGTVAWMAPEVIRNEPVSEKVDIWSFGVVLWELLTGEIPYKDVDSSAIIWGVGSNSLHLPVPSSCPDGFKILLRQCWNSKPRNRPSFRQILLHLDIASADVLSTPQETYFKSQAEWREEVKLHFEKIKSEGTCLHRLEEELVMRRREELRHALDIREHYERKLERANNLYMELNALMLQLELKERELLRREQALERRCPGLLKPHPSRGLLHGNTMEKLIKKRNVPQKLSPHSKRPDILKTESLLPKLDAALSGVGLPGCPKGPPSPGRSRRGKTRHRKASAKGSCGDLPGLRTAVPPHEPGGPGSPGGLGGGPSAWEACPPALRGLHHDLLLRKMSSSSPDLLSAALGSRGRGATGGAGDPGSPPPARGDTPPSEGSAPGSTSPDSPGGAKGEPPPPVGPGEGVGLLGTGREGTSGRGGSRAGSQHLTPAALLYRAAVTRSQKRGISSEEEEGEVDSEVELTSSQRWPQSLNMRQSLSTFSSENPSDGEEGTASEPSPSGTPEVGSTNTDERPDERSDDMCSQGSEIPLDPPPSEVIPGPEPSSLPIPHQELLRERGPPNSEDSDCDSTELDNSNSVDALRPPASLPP
# PLK4, sequence (O00444 whole entry): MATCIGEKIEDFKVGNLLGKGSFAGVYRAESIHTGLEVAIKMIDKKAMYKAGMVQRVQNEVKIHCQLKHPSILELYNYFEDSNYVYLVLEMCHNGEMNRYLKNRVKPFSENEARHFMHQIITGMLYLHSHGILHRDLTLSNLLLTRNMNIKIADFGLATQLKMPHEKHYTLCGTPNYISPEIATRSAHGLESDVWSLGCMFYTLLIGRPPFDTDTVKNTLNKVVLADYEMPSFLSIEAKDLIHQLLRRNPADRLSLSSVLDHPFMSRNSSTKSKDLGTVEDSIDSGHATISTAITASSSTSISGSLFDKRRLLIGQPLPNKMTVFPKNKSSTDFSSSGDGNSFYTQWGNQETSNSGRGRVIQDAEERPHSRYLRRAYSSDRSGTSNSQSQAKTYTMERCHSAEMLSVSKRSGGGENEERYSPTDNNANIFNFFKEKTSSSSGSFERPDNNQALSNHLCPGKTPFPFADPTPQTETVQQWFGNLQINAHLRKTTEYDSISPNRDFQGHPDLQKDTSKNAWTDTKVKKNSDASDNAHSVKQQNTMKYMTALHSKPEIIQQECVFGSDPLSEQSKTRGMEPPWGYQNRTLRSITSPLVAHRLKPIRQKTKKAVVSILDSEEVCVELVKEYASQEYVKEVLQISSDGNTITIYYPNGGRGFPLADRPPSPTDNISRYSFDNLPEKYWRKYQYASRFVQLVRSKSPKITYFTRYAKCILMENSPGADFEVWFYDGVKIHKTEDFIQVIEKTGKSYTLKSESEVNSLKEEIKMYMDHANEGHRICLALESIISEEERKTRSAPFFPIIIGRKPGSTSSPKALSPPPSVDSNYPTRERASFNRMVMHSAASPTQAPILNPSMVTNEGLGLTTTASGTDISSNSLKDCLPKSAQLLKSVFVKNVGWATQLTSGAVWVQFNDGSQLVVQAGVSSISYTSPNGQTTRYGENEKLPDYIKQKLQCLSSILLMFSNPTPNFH
# T1 sequence (Q06187 whole entry): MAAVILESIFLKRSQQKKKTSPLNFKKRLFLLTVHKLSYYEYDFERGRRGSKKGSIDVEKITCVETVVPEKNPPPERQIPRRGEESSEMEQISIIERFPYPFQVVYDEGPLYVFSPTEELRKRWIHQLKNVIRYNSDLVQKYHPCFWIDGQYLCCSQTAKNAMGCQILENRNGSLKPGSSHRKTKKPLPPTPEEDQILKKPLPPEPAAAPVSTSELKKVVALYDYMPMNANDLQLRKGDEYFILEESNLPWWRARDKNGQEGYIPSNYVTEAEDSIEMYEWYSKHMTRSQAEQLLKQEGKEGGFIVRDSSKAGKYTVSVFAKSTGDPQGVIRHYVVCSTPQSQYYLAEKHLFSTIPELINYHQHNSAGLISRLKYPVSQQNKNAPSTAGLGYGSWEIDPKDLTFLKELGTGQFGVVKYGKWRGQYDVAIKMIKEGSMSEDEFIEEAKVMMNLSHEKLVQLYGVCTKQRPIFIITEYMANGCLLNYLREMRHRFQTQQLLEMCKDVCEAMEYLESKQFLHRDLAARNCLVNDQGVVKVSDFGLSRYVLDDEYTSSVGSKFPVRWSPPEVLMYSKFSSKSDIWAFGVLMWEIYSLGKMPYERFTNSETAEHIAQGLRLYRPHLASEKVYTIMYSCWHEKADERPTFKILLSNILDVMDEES
# MELK, sequence (Q14680 whole entry): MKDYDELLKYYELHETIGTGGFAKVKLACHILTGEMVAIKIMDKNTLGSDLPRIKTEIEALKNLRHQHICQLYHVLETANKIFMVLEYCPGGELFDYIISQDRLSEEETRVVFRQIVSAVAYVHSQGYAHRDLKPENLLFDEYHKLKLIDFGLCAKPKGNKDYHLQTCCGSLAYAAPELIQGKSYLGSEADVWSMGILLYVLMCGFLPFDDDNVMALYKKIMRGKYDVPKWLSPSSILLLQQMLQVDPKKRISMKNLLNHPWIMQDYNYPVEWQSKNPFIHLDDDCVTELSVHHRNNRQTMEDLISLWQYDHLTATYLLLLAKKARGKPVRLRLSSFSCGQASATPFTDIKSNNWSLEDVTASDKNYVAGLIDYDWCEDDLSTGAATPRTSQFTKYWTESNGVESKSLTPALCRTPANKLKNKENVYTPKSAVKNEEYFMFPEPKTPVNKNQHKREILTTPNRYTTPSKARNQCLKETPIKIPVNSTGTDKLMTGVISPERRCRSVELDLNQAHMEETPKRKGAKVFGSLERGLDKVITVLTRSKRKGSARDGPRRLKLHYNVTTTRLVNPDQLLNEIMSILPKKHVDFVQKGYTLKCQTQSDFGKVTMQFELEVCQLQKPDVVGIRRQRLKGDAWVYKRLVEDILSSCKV
smiles,measurement,setting,value
"CN1C(=O)[C@@H](N2CCc3c(nn(Cc4ccccc4)c3C(N)=O)C2=O)COc2cc(Cl)ccc21 [Compound 10, (S)-2-benzyl-6-(8-chloro-5-methyl-4-oxo-2,3,4,5-tetrahydrobenzo[b][1,4]oxazepin-3-yl)-7-oxo-4,5,6,7-tetrahydro-2H-pyrazolo[3,4-c]pyridine-3-carboxamide]",receptor occupancy at 1 µM,[1],-4.45%
same,receptor occupancy at 1 µM,[2],4.16%
same,receptor occupancy at 1 µM,[3],-8.73%
same,receptor occupancy at 1 µM,[4],3.71%
same,receptor occupancy at 1 µM,[5],-4.01%
same,receptor occupancy at 1 µM,[6],-6.21%
same,receptor occupancy at 1 µM,[7],-2.88%
same,receptor occupancy at 1 µM,[8],8%
same,receptor occupancy at 1 µM,[9],4.07%
same,receptor occupancy at 1 µM,[10],7.45%
same,receptor occupancy at 1 µM,[11],-5.62%
same,receptor occupancy at 1 µM,[12],-0.25%
same,receptor occupancy at 1 µM,[13],-2.26%
same,receptor occupancy at 1 µM,[14],-3.79%
same,receptor occupancy at 1 µM,[15],-3.59%
same,receptor occupancy at 1 µM,[16],4.26%
same,receptor occupancy at 1 µM,[17],6.33%
same,receptor occupancy at 1 µM,[18],13.7%
same,receptor occupancy at 1 µM,[19],-1.01%
same,receptor occupancy at 1 µM,[20],1.52%
same,receptor occupancy at 1 µM,[21],-11.3%
same,receptor occupancy at 1 µM,[22],3.37%
same,receptor occupancy at 1 µM,[23],2.97%
same,receptor occupancy at 1 µM,[24],15.8%
same,receptor occupancy at 1 µM,[25],-2.1%
same,receptor occupancy at 1 µM,[26],-9.33%
same,receptor occupancy at 1 µM,[27],-10.1%
same,receptor occupancy at 1 µM,[28],0.288%
same,receptor occupancy at 1 µM,[29],-2.56%
same,receptor occupancy at 1 µM,[30],10.7%
same,receptor occupancy at 1 µM,[31],0.735%
same,receptor occupancy at 1 µM,[32],1.53%
same,receptor occupancy at 1 µM,[33],-4.46%
same,receptor occupancy at 1 µM,[34],2.74%
same,receptor occupancy at 1 µM,[35],-8.22%
same,receptor occupancy at 1 µM,[36],2.28%
